From patent US8067036B2, “Gnetum extract” (Hosoda SHC Inc., priority 2004, dated 2011)

Key:
[1] = DPPH radical scavenging (antioxidative action) test; type: biochemical; settings: rank order among Gnetin C, Gnemonocide A, D
Experimental: After 6 hours, decreases of absorbance (absorbance difference) at 517 nm of these reaction solutions were measured.

[2] = test system: hay bacillus, Escherichia coli, sake yeast, penicillium; assay: Antimicrobial action/effect (overall statement); type: cell-based; settings: rank order among Gnetin C, Gnemonocide A, D

With Gnemonocide A the “order of scavenging radical action (antioxidative effect) to DPPH” value (shortened to “order of scavenging radical action”) [1] was “Gnetin C>Gnemonocide C≈Gnemonocide D>Gnemonocide A” and the “order of antimicrobial action of the identified ingredients” value (from here on “order … of the identified ingredients”) [2] was “does not show the antimicrobial action”.
In the case of Gnemonocide C, the “order of scavenging radical action” value [1] was “Gnetin C>Gnemonocide C≈Gnemonocide D>Gnemonocide A” and the “order … of the identified ingredients” value [2] was “Gnetin C>Gnemonocide C≈Gnemonocide D”.
With Gnemonocide D the “order of scavenging radical action” value [1] was “Gnetin C>Gnemonocide C≈Gnemonocide D>Gnemonocide A” and the “order … of the identified ingredients” value [2] was “Gnetin C>Gnemonocide C≈Gnemonocide D”.
